Laboratory results reported in ChEMBL document CHEMBL5728478, “Factor XIIa inhibitors” (2021).

Target: T1, Coagulation factor XII (Homo sapiens, UniProt P00748)
T1 sequence (P00748 whole entry): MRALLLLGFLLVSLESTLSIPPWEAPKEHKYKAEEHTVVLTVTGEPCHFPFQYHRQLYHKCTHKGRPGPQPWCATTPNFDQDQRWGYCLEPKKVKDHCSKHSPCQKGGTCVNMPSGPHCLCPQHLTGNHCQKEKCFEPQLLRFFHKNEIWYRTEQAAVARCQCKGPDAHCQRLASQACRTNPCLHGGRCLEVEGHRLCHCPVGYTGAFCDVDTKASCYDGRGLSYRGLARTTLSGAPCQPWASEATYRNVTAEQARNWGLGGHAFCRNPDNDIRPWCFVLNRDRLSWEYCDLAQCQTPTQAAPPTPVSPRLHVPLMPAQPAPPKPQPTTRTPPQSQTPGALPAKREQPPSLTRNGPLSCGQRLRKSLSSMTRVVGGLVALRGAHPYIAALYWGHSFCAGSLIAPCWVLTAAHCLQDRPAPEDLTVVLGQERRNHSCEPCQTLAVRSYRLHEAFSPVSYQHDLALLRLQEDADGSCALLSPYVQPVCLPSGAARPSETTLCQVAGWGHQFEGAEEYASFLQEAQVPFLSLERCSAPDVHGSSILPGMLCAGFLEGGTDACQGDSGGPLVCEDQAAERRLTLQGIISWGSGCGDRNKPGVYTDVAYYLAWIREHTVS
Assay: Factor XIIa assay: Factor XIIa activity determinations were made in 50 mM HEPES buffer containing 150 mM NaCl, 5 mM CaCl2, and 0.1% PEG 8000 (polyethylene glycol; JT Baker or Fisher Scientific) at pH 7.4. Determinations were made using purified human Factor XIIa at a final concentration of […] (Sekisui Diagnostics) and the synthetic substrate, n-Acetyl-Lys-Pro-Arg-AFC, TFA salt (Sigma # C6608) at a concentration of 100 μM.

Row | IC50 | SMILES
1 | 5 nM | C[N+](C)(C)CCCC[C@@H](NC1CCCCC1)C(=O)N1CC[C@@H](NC(=O)N2CCC3(CC2)CC3)[C@@H](C(=O)NCc2ccccc2)C1
2 | 82.9 nM | O=C(NCc1cccs1)[C@H]1CN(C(=O)C(CC2CCNCC2)NC2CCCCC2)CC[C@H]1NC(=O)N1CCC2(CC1)CC2 (some centres not stated)
